Measured values: patent publication US20240025884A1 (Dong-A ST Co., Ltd., priority 2022, published 2024)

Target: GCN2 (Homo sapiens (Human), UniProt Q9P2K8)
Experiment: GCN2 Biochemical Assay (TR-FRET, GFP-eIF2S1 substrate phosphorylation)
Conditions: read-out: IC50 (GCN2 Inhibitory Activity)
Method in brief: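 TR-FRET readout (Ex 340, Em 490/520 nm) after 2–3 h with Tb-labelled phospho-eIF2S1 antibody in stop mix, following a 70 min room-temperature kinase step. Reaction: in-house GCN2, GFP-eIF2S1, ATP, tRNA in Tris pH 7.5 (2× stocks 1.6 nM, 50 nM, 0.2 mM); compounds tested at 10 concentrations, with a phospho-substrate artifact counter-plate.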

GCN2, sequence (Q9P2K8 whole entry): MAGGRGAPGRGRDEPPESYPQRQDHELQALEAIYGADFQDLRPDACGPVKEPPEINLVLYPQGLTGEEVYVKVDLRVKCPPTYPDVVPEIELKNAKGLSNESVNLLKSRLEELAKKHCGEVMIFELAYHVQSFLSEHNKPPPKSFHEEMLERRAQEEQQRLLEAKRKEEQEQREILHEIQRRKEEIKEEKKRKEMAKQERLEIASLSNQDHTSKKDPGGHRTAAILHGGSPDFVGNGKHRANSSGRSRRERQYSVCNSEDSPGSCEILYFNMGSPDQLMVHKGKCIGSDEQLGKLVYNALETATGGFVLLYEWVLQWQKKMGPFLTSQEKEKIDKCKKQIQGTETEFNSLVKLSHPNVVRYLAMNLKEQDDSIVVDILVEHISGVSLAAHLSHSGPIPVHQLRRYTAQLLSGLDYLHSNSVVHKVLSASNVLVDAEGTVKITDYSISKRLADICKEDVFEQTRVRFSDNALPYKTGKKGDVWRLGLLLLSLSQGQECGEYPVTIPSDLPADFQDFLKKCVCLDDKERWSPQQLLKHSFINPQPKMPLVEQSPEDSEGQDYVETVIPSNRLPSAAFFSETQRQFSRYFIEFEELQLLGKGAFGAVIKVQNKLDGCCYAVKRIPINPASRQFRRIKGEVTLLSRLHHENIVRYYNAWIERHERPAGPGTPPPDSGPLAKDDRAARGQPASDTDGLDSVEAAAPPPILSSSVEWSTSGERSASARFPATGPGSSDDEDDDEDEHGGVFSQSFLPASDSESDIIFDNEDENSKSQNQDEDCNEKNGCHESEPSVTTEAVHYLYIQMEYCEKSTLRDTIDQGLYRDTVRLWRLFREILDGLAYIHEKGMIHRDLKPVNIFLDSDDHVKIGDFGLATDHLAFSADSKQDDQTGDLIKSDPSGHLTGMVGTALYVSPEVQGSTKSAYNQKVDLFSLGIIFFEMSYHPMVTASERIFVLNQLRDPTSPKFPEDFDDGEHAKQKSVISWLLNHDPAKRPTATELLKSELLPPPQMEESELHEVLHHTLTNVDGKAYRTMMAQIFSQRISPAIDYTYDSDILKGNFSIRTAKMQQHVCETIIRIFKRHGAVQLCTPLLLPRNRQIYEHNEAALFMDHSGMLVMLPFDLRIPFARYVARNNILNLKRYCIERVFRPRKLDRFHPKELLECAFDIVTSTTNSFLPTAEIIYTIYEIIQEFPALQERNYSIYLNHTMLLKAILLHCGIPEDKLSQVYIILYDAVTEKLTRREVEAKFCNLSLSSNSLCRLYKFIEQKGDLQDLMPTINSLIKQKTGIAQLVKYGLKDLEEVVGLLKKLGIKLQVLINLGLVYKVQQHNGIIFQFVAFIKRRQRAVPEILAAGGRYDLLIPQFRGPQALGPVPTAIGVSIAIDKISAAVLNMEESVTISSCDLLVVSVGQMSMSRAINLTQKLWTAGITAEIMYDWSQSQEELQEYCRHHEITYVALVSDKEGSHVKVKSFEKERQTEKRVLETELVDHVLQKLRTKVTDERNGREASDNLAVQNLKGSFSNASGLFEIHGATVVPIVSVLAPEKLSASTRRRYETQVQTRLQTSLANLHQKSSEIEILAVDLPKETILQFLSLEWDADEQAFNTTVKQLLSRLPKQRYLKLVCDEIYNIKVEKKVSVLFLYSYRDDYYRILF

Compound	IC50
Cc1cnc(Nc2cc(C)n(C)n2)nc1-c1c[nH]c2c(N3Cc4c(NC(=O)c5ccon5)cccc4C3=O)cccc12 [Example 324, N-(2-(3-(2-((1,5-dimethyl-1H-pyrazol-3-yl)amino)-5-methylpyrimidin-4-yl)-1H-indol-7-yl)-1-oxoisoindolin-4-yl)isoxazole-3-carboxamide]	0.01 to 0.1 µM
Cc1cc(C(=O)Nc2cccc3c2CN(c2cccc4c(-c5nc(Nc6cc(C)n(C)n6)ncc5C)c[nH]c24)C3=O)no1 [Example 325, N-(2-(3-(2-((1,5-dimethyl-1H-pyrazol-3-yl)amino)-5-methylpyrimidin-4-yl)-1H-indol-7-yl)-1-oxoisoindolin-4-yl)-5-methylisoxazole-3-carboxamide]	0.01 to 0.1 µM
Cc1cnc(Nc2cc(C)n(C)n2)nc1-c1c[nH]c2c(N3Cc4c(NC(=O)C5CCOC5)cccc4C3=O)cccc12 (stereo not shown) [Example 326, N-(2-(3-(2-((1,5-dimethyl-1H-pyrazol-3-yl)amino)-5-methylpyrimidin-4-yl)-1H-indol-7-yl)-1-oxoisoindolin-4-yl)tetrahydrofuran-3-carboxamide]	< 0.01 µM
Cc1cnc(Nc2cc(C)n(C)n2)nc1-c1c[nH]c2c(N3Cc4c(NC(=O)C5CCCOC5)cccc4C3=O)cccc12 (stereo not shown) [Example 327, N-(2-(3-(2-((1,5-dimethyl-1H-pyrazol-3-yl)amino)-5-methylpyrimidin-4-yl)-1H-indol-7-yl)-1-oxoisoindolin-4-yl)tetrahydro-2H-pyran-3-carboxamide]	< 0.01 µM
Cc1cnc(Nc2cc(C)n(C)n2)nc1-c1c[nH]c2c(N3Cc4c(NC(=O)C5(C)CCOCC5)cccc4C3=O)cccc12 [Example 328, N-(2-(3-(2-((1,5-dimethyl-1H-pyrazol-3-yl)amino)-5-methylpyrimidin-4-yl)-1H-indol-7-yl)-1-oxoisoindolin-4-yl)-4-methyltetrahydro-2H-pyran-4-carboxamide]	< 0.01 µM
Cc1cnc(Nc2cc(C)n(C)n2)nc1-c1c[nH]c2c(N3Cc4c(NC(=O)C5CCCC(C)C5)cccc4C3=O)cccc12 (stereo not shown) [Example 329, N-(2-(3-(2-((1,5-dimethyl-1H-pyrazol-3-yl)amino)-5-methylpyrimidin-4-yl)-1H-indol-7-yl)-1-oxoisoindolin-4-yl)-3-methylcyclohexane-1-carboxamide]	0.1 to 1 µM
CC1=CCC(C(=O)Nc2cccc3c2CN(c2cccc4c(-c5nc(Nc6cc(C)n(C)n6)ncc5C)c[nH]c24)C3=O)CC1 (stereo not shown) [Example 330, N-(2-(3-(2-((1,5-dimethyl-1H-pyrazol-3-yl)amino)-5-methylpyrimidin-4-yl)-1H-indol-7-yl)-1-oxoisoindolin-4-yl)-4-methylcyclohex-3-ene-1-carboxamide]	0.01 to 0.1 µM
Cc1cnc(Nc2cc(C)n(C)n2)nc1-c1c[nH]c2c(N3Cc4c(NC(=O)[C@H]5C[C@H](N)CN5)cccc4C3=O)cccc12 [Example 331, (2R,4S)-4-amino-N-(2-(3-(2-((1,5-dimethyl-1H-pyrazol-3-yl)amino)-5-methylpyrimidin-4-yl)-1H-indol-7-yl)-1-oxoisoindolin-4-yl)pyrrolidine-2-carboxamide]	< 0.01 µM
Cc1cnc(Nc2cc(C)n(C)n2)nc1-c1c[nH]c2c(N3Cc4c(NC(=O)C5(C)CCCNC5)cccc4C3=O)cccc12 (stereo not shown) [Example 332, N-(2-(3-(2-((1,5-dimethyl-1H-pyrazol-3-yl)amino)-5-methylpyrimidin-4-yl)-1H-indol-7-yl)-1-oxoisoindolin-4-yl)-3-methylpiperidine-3-carboxamide]	< 0.01 µM

The remaining lines, values ahead:

IC50	Compound
< 0.01 µM	Cc1cnc(Nc2cc(C)n(C)n2)nc1-c1c[nH]c2c(N3Cc4c(NC(=O)[C@@H]5CCN(C)C5)cccc4C3=O)cccc12 [Example 333, (R)-N-(2-(3-(2-((1,5-dimethyl-1H-pyrazol-3-yl)amino)-5-methylpyrimidin-4-yl)-1H-indol-7-yl)-1-oxoisoindolin-4-yl)-1-methylpyrrolidine-3-carboxamide]
0.01 to 0.1 µM	Cc1cncc(C(=O)Nc2cccc3c2CN(c2cccc4c(-c5nc(Nc6cc(C)n(C)n6)ncc5C)c[nH]c24)C3=O)c1 [Example 334, N-(2-(3-(2-((1,5-dimethyl-1H-pyrazol-3-yl)amino)-5-methylpyrimidin-4-yl)-1H-indol-7-yl)-1-oxoisoindolin-4-yl)-5-methylnicotinamide]
< 0.01 µM	Cc1cnc(Nc2cc(C)n(C)n2)nc1-c1c[nH]c2c(N3Cc4c(NC(=O)CN(C)C)cccc4C3=O)cccc12 [Example 335, N-(2-(3-(2-((1,5-dimethyl-1H-pyrazol-3-yl)amino)-5-methylpyrimidin-4-yl)-1H-indol-7-yl)-1-oxoisoindolin-4-yl)-2-(dimethylamino)acetamide]
0.01 to 0.1 µM	Cc1cnc(Nc2cc(C)n(C)n2)nc1-c1c[nH]c2c(N3Cc4c(NC(=O)C5CCCC5)cccc4C3=O)cccc12 [Example 336, N-(2-(3-(2-((1,5-dimethyl-1H-pyrazol-3-yl)amino)-5-methylpyrimidin-4-yl)-1H-indol-7-yl)-1-oxoisoindolin-4-yl)cyclopentanecarboxamide]
< 0.01 µM	Cc1cnc(Nc2cc(C)n(C)n2)nc1-c1c[nH]c2c(N3Cc4c(NC(=O)C5CCOCC5)cccc4C3=O)cccc12 [Example 337, N-(2-(3-(2-((1,5-dimethyl-1H-pyrazol-3-yl)amino)-5-methylpyrimidin-4-yl)-1H-indol-7-yl)-1-oxoisoindolin-4-yl)tetrahydro-2H-pyran-4-carboxamide]
0.01 to 0.1 µM	Cc1cnc(Nc2cc(C)n(C)n2)nc1-c1c[nH]c2c(N3Cc4c(NC(=O)c5ccoc5)cccc4C3=O)cccc12 [Example 338, N-(2-(3-(2-((1,5-dimethyl-1H-pyrazol-3-yl)amino)-5-methylpyrimidin-4-yl)-1H-indol-7-yl)-1-oxoisoindolin-4-yl)furan-3-carboxamide]
< 0.01 µM	Cc1cnc(Nc2cc(C)n(C)n2)nc1-c1c[nH]c2c(N3Cc4c(NC(=O)c5cc(O)ncn5)cccc4C3=O)cccc12 [Example 339, N-(2-(3-(2-((1,5-dimethyl-1H-pyrazol-3-yl)amino)-5-methylpyrimidin-4-yl)-1H-indol-7-yl)-1-oxoisoindolin-4-yl)-6-hydroxypyrimidine-4-carboxamide]
0.1 to 1 µM	Cc1cnc(Nc2cc(C)n(C)n2)nc1-c1c[nH]c2c(N3Cc4cccc(NS(=O)(=O)c5ccccc5)c4C3=O)cccc12 [Example 340, N-(2-(3-(2-((1,5-dimethyl-1H-pyrazol-3-yl)amino)-5-methylpyrimidin-4-yl)-1H-indol-7-yl)-3-oxoisoindolin-4-yl)benzenesulfonamide]
< 0.01 µM	Cc1cnc(Nc2cc(C)n(C)n2)nc1-c1c[nH]c2c(N3Cc4c(NS(=O)(=O)c5ccccc5)cccc4C3=O)cccc12 [Example 341, N-(2-(3-(2-((1,5-dimethyl-1H-pyrazol-3-yl)amino)-5-methylpyrimidin-4-yl)-1H-indol-7-yl)-1-oxoisoindolin-4-yl)benzenesulfonamide]
< 0.01 µM	Cc1cnc(Nc2cc(C)n(C)n2)nc1-c1c[nH]c2c(N3Cc4c(NS(C)(=O)=O)cccc4C3=O)cccc12 [Example 342, N-(2-(3-(2-((1,5-dimethyl-1H-pyrazol-3-yl)amino)-5-methylpyrimidin-4-yl)-1H-indol-7-yl)-1-oxoisoindolin-4-yl)methanesulfonamide]
